Data: publication PMC8474116, “Discovery of Novel Acetamide-Based Heme Oxygenase-1 Inhibitors with Potent In Vitro Antiproliferative Activity” (Journal of Medicinal Chemistry, 2021)
In brackets after ≈: the same amount, converted by molar mass.

Tests used:
hERG potassium channel = target: T1, hERG potassium channel (Homo sapiens, UniProt Q12809); assay: hERG human potassium ion channel binding (Eurofins)
T1 construct: Eurofins Scientific (contract assay) 4094
Text: (§1) In vitro ADMET testing has been performed at Eurofins Scientific.

VEGF = VEGF intracellular expression by Western blot, U87MG; assay type: cell-based, human; conditions: 10 μM, 48 h
Protocol: (§2) Proteins were extracted from total cell lysate, as previously described.[61] Briefly, cell lines were added to a buffer containing 20 mM Tris (pH 7.4), 2 mM EDTA, 0.5 mM EGTA, 50 mM mercaptoethanol, and […] sucrose supplemented with phosphatase and protease inhibitor cocktails (Roche Diagnostics, Monza, Italy). Subsequently, protein samples were sonicated twice for 20′ by using an ultrasonic probe, followed by centrifugation at 10 000g for 10 min at 4 °C. Sample proteins (30 μg) were diluted in 4X NuPage LDS sample buffer (Invitrogen, NP0007), heated at 80 °C for 5 min, and then separated on a Biorad Criterion XT 4–15% Bis–Tris gel (BIO-RAD) by electrophoresis and then transferred to a PVDF membrane (BIO-RAD). Blots were blocked using the Odyssey Blocking Buffer (LI-COR Biosciences) and probed with appropriate antibodies: HO-1 antibody (GeneTex GTX101147), goat polyclonal anti-VEGF (cat. no. sc-1836, Santa Cruz Biotechnology), and rabbit polyclonal anti-β-tubulin (cat n.sc-9104, Santa Cruz Biotechnology) and β-actin antibody (GeneTex GTX109639).
(§3) The secondary antibodies goat antirabbit (Odyssey, #926-32211; Odyssey #926-68021) and donkey antigoat IRDye 800CW (cat #926-32214; Li-Cor Biosciences) were used at 1:7000. Blots were scanned, and densitometric analysis was performed with the Odyssey Infrared Imaging System. Values were normalized to β-actin and to β-tubulin.

human CYP3A4 = target: T2, human CYP3A4 (Homo sapiens, UniProt P08684); assay: CYP3A4 inhibition (Eurofins); assay type: in vitro ADME
T2 construct: Eurofins Scientific (contract assay) 391
T2 sequence (P08684 whole entry): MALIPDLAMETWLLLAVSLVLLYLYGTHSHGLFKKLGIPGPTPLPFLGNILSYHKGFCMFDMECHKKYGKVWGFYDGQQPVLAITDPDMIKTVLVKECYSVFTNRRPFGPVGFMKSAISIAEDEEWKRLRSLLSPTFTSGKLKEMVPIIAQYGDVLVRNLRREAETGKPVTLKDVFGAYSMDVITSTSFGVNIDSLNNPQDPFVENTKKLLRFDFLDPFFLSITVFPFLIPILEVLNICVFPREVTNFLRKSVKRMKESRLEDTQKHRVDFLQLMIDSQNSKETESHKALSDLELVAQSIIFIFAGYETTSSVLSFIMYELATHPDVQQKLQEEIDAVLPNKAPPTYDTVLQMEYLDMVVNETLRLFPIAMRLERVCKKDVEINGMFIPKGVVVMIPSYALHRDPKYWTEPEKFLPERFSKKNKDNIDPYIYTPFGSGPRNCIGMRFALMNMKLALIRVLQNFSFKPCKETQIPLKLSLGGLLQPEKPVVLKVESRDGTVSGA
Text: as §1

[1] = Aqueous solubility in simulated gastric fluid (Eurofins); assay type: physicochemical
Protocol: In vitro ADMET testing has been performed at Eurofins Scientific. Aqueous solubility in simulated gastric fluid (catalogue product number 2061), intrinsic clearance in liver microsome-human (catalogue product number 607), CYP2D6 and CYP3A4 inhibition (catalogue product numbers 1338 and 391, respectively), and hERG human potassium ion channel binding (catalogue product number 4094) were conducted at Eurofins following their experimental protocols (https://www.eurofins.com/).

VEGF-A = VEGF-A release in conditioned media, ELISA, U87MG; assay type: cell-based, human; conditions: 10 μM, 48 h
Protocol: VEGF-A release in conditioned media was measured using the ELISA sandwich enzymatic method with specific anti-VEGF-A (cat. No. ELH-VEGF) antibodies coated on a 96-well plate, according to the manufacturer’s guidelines. Briefly, confluent U87MG cells grown in media supplemented with 1% FBS were treated for 48 h with 10 μM of 7l. Standards and supernatants from samples were pipetted into the wells containing the immobilized VEGF antibody. The wells were then washed before adding a biotinylated antihuman VEGF antibody. Following incubation, the unbound biotinylated antibody was washed off, and HRP-conjugated streptavidin was pipetted in each well. After an additional wash step, a TMB substrate solution was added to each well, resulting in blue coloration proportional to the amount of bound VEGF. Finally, the stop solution was added, and the colorimetric intensity of the blue substrate now turned yellow was measured at 450 nm.

HO-1 [2] = assay: HO-1 immunolocalization (immunofluorescence) in U87MG; assay type: cell-based, human; conditions: 10 μM, 48 h
Protocol: To determine the cellular distribution of heme oxygenase-1 in tumor cells, immunofluorescence analysis was performed as previously described.[62] Tumor cell lines were cultured on glass coverslips fixed in 4% paraformaldehyde in PBS (15′ at room temperature), permeabilized with 0.2% of Triton X100, blocked with 0.1% of BSA in PBS, and then probed with rabbit HO-1 antibody. […] DNA was counterstained stained with DAPI (#940110, Vector Laboratories). After a series of PBS and double-distilled water washes, the fixed cells were cover-slipped with the Vectashield mounting medium (Vector Laboratories, Inc., Burlingame, CA). Localization of the antibody was performed by Zeiss fluorescent microscopy.

HO-1 [3] = assay: HO-1 protein expression by Western blot, U87MG; assay type: cell-based, human; conditions: 10 μM, 48 h
Protocol: as §2, §3

U87MG cells = assay: Wound-healing assay, U87MG; assay type: cell-based, human; conditions: 10 μM, vs control at 24 and 48 h
Protocol: U87MG cells grown to confluence in 6-well dishes (5 × 10^4 cells/well) were scratched with a 200 μL pipette tip. Cells were cultured in a 1% serum medium with or without 10 μM of 7l. Quantitative assessment of the wound area was performed under an inverted microscope, as previously described.[63] The distance that the advancing cells had moved into the wound area was measured after 24 and 48 h. The migration was calculated as the average number of cells observed in three random of high-power wounded fields/per well in duplicate wells and expressed in percentage of control (% of control).

[4] = Microsomal stability, human liver microsome assay (Eurofins); assay type: in vitro ADME; conditions: human liver microsomes, protein 0.1 mg/mL
Text: as §1

HO-1 [5] = assay: HO-1 protein expression by Western blot, DU145; assay type: cell-based; conditions: DU145, 10 μM, 48 h
Protocol: as §2, §3

HO-1 [6] = assay: HO-1 protein expression by Western blot, A172; assay type: cell-based, human; conditions: A172, 10 μM, 48 h
Protocol: as §2, §3

DU145 cells = assay: MTT cell viability assay, DU145; assay type: cell-based; conditions: 48 h, 1 μM and 10 μM
Protocol: (§4) Experiments were performed on human GBM cell lines U87MG (ATCCC number #HTB-14) and A172 (ATCCC #CRL-1620) on DU145 (ATCC HTB-81) and human lung adenocarcinoma A549 (ATCC CCL-185-LUC2). All cell lines were obtained from the American Type Culture Collection (ATCC, Rockville, MD). Cells were grown in Dulbecco’s modified Eagle’s medium (DMEM) supplemented with 10% of heat-inactivated fetal bovine serum (FBS), 100 U/mL of penicillin, and 100 μg/mL of streptomycin (Sigma-Aldrich, Steinheim, Germany). Cells were incubated at 37 °C in a humidified atmosphere with 5% CO2.
(§5) The effect of selected compounds 7i and 7l–p on cell viability was assessed by performing an MTT assay. Cells were seeded into 96-well plates at a density of 7 × 10^3 cells/well in 100 μL of culture medium. After 24 h, cells were treated with selected compounds at three different concentrations (1 μM, 10 μM, and 50 μM) for 48 h. Following treatments, 0.5 mg/mL of 3-[4,5-dimethylthiazol-2-yl]-2,5-diphenyltetrazolium bromide (MTT) (Sigma-Aldrich) was added to each well and incubated for 4 h at 37 °C. Finally, dimethyl-sulfoxide (DMSO) was used to dissolve formazan salts, and absorbance was measured at 570 nm in a microplate reader (Biotek Synergy-HT). Eight replicate wells were used for each group.

A549 cells = assay: MTT cell viability assay, A549; assay type: cell-based, human; conditions: 48 h, 10 μM
Protocol: as §4, §5

T1 sequence (Q12809 whole entry): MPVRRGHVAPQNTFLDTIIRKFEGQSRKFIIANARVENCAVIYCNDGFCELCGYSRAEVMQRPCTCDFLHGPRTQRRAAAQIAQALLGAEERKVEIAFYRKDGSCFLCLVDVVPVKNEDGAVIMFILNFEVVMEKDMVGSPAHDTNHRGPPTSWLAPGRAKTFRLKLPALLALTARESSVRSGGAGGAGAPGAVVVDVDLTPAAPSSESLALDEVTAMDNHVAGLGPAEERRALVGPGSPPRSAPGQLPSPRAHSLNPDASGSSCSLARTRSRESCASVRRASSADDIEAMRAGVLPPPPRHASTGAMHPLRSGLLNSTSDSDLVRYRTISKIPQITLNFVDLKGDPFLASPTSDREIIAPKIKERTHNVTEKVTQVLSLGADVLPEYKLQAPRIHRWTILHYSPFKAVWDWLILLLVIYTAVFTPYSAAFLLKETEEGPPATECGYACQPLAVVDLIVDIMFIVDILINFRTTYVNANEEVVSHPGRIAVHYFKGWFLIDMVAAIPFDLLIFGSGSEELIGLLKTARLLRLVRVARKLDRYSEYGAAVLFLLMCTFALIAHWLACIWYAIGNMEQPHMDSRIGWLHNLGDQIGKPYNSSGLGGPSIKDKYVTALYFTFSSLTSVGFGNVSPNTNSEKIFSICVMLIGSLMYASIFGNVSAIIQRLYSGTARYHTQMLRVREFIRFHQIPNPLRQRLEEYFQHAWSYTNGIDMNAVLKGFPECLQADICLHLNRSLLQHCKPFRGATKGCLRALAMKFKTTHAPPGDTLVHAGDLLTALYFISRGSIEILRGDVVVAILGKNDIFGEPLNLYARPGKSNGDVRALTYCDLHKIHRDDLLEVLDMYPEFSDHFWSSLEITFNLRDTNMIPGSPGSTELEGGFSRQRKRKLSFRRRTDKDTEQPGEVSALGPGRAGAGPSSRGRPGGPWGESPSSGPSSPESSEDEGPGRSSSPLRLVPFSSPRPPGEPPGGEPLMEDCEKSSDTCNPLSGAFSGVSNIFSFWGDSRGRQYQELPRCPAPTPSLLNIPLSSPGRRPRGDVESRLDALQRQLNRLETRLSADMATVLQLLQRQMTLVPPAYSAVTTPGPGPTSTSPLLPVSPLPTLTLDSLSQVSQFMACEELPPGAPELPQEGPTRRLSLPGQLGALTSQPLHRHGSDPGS

Row | SMILES | inhibition at 1 µM (hERG potassium channel) | VEGF intracellular expression (in words) (VEGF) | IC50 (human CYP3A4) | solubility [1] | VEGF release in the culture medium (in words) (VEGF-A) | HO-1 immunoreactivity (in words) (HO-1 [2]) | HO-1 protein expression (in words) (HO-1 [3]) | cell motility, wound-healing assay (in words) (U87MG cells) | microsomal CLint [4] | half-life ([4]; read-out: microsomal stability t1/2) | HO-1 protein expression (in words) (HO-1 [5]) | HO-1 protein expression (in words) (HO-1 [6]) | cell viability reduction (in words) (DU145 cells) | cell viability reduction (in words) (A549 cells)
1 | CN(C(=O)Cn1ccnc1)C(c1ccccc1)c1ccc(Cl)cc1 (stereo not drawn) [7l, N-((4-Chlorophenyl)(phenyl)methyl)-2-(1H-imidazol-1-yl)-N-methylacetamide] | 5.7% | significant reduction | 180 nM | 196 µM (≈ 66.5 µg/mL) | significant reduction | reduced the immunoreactivity of HO-1 | reduced HO-1 expression | drastically reduced | 58.3 µL/min/mg | 1.98 h |  |  |  | 
2 | CN(C(=O)Cn1ccnc1)C(c1ccccc1)c1ccc(I)cc1 (stereo not drawn) [7n, 2-(1H-Imidazol-1-yl)-N-((4-iodophenyl)(phenyl)methyl)-N-methylacetamide] |  |  |  |  |  |  | enhanced its levels |  |  |  | reduced HO-1 protein expression | enhanced its levels |  | 
3 | CN(C(=O)Cn1ccnc1)C(c1ccccc1)c1ccc(OCc2ccccc2)cc1 (stereo not drawn) [7o, N-((4-(Benzyloxy)phenyl)(phenyl)methyl)-2-(1H-imidazol-1-yl)-N-methylacetamide] |  |  |  |  |  |  |  |  |  |  |  |  | had efficacies | weak effect
